Measurements from patent publication US9180164B2, “Compounds and methods of modulating angiogenesis” (THE CLEVELAND CLINIC FOUNDATION, priority 2011, dated 2015).
Read-outs that look alike come from different tables or passages of the source.

What was measured:
[1] = tested on: mouse lung endothelial cells; details: 20 ng/ml VEGF, 8 h
Description: The formation of vascular tube-like structures by wild type and DiYF mouse lung endothelial cells were assessed on the basement membrane matrix preparation. Six well plates were coated with 0.5 ml of Matrigel according to the manufacturer's instructions. Wild type and DiYF mouse lung endothelial cells were detached from the tissue culture flasks using 20 mM EDTA. Cells were washed twice with sterile 1×PBS and seeded on Matrigel coated plate. Medium was supplemented with or without 20 ng/ml VEGF and further incubated at 37° C. for 8 h. The tube formation was observed using an inverted phase contrast microscope (Leica) and photographs were taken from each well. Using ImagePro software, the degree of tube formation was quantified by measuring the length of tubes in random fields.

[2] = tested on: mouse lung endothelial cells; details: WT EC, vitronectin
Description: Transwell tissue culture inserts were coated with various integrin ligands for 24 h at 4° C. Both WT and DiYF lung endothelial cells were trypsinized and 1×10^5 cells were added into each well. The lower chamber contained varying concentrations of VEGF-A165 (0-20 ng/ml). Cells were allowed to migrate for 12 h and fixed with 3.7% formaldehyde/PBS for 15 min and stained with 0.5% crystal violet. The non-migrated cells adhered to the top surface were removed and three random 10× fields were photographed using Leica inverted phase contrast microscope.

αvβ3 integrin = assay: WOW-1 binding assay, HUVECs; format: cell-based, Human; details: FACS analysis
Description: Semiconfluent HUVECs were serum starved for 4 h and further stimulated with 20 ng/mL VEGF-A165 or VEGFDΔNΔC. WOW-1 Fab was added to a final concentration of 30 μg/mL, followed by addition of FITC-conjugated goat anti-mouse IgG at 10 μg/mL. After 30 min cells were fixed with 3.7% formaldehyde in PBS for 15 min, washed twice with PBS, and fluorescence-activated cell sorting (FACS) was performed using a FACS Calibur (Becton Dickinson, San Jose, Calif.) and data were analyzed using CellQuest software.

VEGF
effect on length of the tubes ([1]; DiYF EC): a little effect
increase in the length of the tubes ([1]; WT EC): about 3 fold
increase of migration compared to untreated EC ([2]; 5 ng/ml): 1.5 fold
increase of migration compared to untreated EC ([2]; 10 ng/ml): 2.5 fold
increase of migration compared to untreated EC ([2]; 20 ng/ml): 2.9 fold
increase of WOW-1 binding to EC compared to resting cells (αvβ3 integrin): 6 fold
